Literature values, collected in patent publication US20080166423A1, “Combination Medication for Treating the Effects of Stomach Acid Reduction Medication on Bone Integrity” (priority 2007, published 2008).

Settings: per day

In the case of `CC(=O)Nc1ccc(O)cc1` [Acetaminophen], the “daily dosage with known liver toxicity” value is listed as greater than 4000 mg.
